We go through 19 compounds from patent publication US20250017922A1, “BIFUNCTIONAL COMPOUNDS FOR DEGRADING BTK WITH ENHANCED IMID ACTIVITY” (NURIX THERAPEUTICS, INC., priority 2021, published 2025).

The term DC50 denotes the concentration at which degradation of the target reaches its halfway point. Low readings indicate degradation at low concentration, high ones degradation only at high concentration. As a reminder, the Dmax is the largest share of the target that was removed.

For one data set, the target named is T1, Aiolos (Homo sapiens, UniProt Q96SW2+Q9UKT9).
T1 construct: endogenous in cells; host or cells: human PBMCs (CD20+CD3- B cells, CD3+CD20- T cells)
Put plainly: Aiolos degradation in human PBMCs, flow cytometry (IMiD activity). To be noted: 24 hours; for DC50: Aiolos degradation; for Dmax: read-out: Dmax (maximum percent Aiolos degradation). In kind it is cell-based. The protocol:
Frozen human peripheral blood mononuclear cells (PBMCs) were thawed and treated with DMSO or compound for 24 hours and then fixed and permeabilized using a Foxp3/Transcription Factor Fixation/Permeabilization Kit (eBioscience, 00-5523). Cells were stained with fluorophore-conjugated antibodies against CD20 (Biolegend 302330), CD3 (BD Pharmingen 552127), and Aiolos (Biolegend 371106). An additional set of DMSO-treated PBMCs was stained for CD20, CD3, and an AlexaFluor 647-conjugated mouse IgG1 isotype control antibody (Biolegend 400136). Stained cells were run on an Attune NxT Acoustic Focusing Flow Cytometer (Thermo-Fisher A29004), and data was analyzed using FlowJo (v10.5.3) and GraphPad Prism (v7.00) software. Single lymphocytes were gated for B cells (CD20+CD3−) and T cells (CD3+CD20−), and the geometric mean fluorescence intensity (MFI) of Aiolos was calculated for each population. The MFI of the isotype control was calculated for each population and used to quantify background staining. Percent Aiolos degradation was calculated for each compound-treated sample using the following equation: […]
DC50 is the compound concentration degrading […] of Aiolos. Dmax is the maximum percent Aiolos degradation in the assay.

The test system of the next data set is arthritis. Kind of data set: Arthritis model, clinical arthritis score and body weight. In kind it is in vivo, mice. The following applies: daily oral treatment at 30 mg/kg, compared to dexamethasone and vehicle. The protocol:
Significance of clinical arthritis score (A) was determined from the area under the curve (AUC) of mean paw scores calculated for individual mice. (C) Serum levels of anti-type II collagen IgG. Statistical significance was determined between vehicle control and treated groups with one-way Kruskal-Wallis ANOVA and Dunn's multiple comparisons test.

In another data set the target is T2, BTK (Homo sapiens, UniProt Q06187).
T2 construct: host or cells: preclinical models (not described)
Kind of data set: BTK degradation and anti-tumor activity in preclinical models. In kind it is in vivo.

For another data set, the target named is T3, Ikaros (Homo sapiens, UniProt Q13422+Q96SW2).
T3 construct: from tissue; host or cells: patient PBMCs, lysed after in vivo dosing
Kind of data set: Ikaros degradation in patient PBMCs, Western blot (Jess Simple Western). In kind it is in vivo. To be noted: Cycle 1 Day 8. The method, then:
Frozen patient PBMCs collected at baseline and at Cycle 1 Day 8 were processed into protein lysate and degradation of cereblon neo-substrate Ikaros was determined using Western blot via Jess™ Simple Western automated system. […] Patients receiving 300 mg Compound 5, 75.2-95.7% Ikaros degradation was detected.
Frozen PBMCs from patients were prepared and Ikaros protein levels were assessed using Western blot via Jess™ Simple Western automated system.
FIG. 7A, densitometric analysis of Ikaros degradation in all patients were obtained after normalization to β-actin and % Ikaros degradation was calculated relative to Baseline values from each patient.
For Ikaros degradation assessment, patient PBMCs were lysed in lysis buffer RIPA buffer (Fisher, PI89901), complete Mini EDTA-free protease inhibitor (Sigma 11836170001), Protease Inhibitor Cocktail (Sigma, P2714) and Phosphatase Inhibitor Cocktail 2 and 3 (Sigma, P5726 and P0044) and stored overnight at −80° C. Cells were then thawed and centrifuged for 5 min at 8000×g and lysate supernatants were transferred to a fresh tube. Protein levels were determined by BCA Assay performed according to manufacturer's protocol (EMD Millipore, cat. no. 71285-3). A total of 3 μg protein was loaded and 1:50 dilution of primary anti-Ikaros (Cell Signaling Technology, cat. 14859) and 1:50 anti-β-Actin (Cell Signaling Technology, cat. 8457) was used. […]
(In general: Immunoblotting shows a protein as a band on a membrane.)

T1 sequence (Q9UKT9 whole entry): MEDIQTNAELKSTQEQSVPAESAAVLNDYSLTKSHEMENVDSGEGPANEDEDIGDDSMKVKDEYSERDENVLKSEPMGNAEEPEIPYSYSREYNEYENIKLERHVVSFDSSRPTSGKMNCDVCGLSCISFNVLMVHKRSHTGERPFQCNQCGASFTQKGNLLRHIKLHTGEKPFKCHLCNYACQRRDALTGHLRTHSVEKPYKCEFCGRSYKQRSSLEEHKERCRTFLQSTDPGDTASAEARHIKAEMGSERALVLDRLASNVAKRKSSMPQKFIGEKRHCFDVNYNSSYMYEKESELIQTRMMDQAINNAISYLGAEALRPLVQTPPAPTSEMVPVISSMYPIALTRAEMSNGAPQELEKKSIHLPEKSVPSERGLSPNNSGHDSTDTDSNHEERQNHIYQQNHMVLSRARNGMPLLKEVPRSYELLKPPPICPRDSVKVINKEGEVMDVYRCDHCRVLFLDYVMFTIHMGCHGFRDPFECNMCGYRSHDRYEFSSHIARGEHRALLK
T1 sequence (Q96SW2 whole entry): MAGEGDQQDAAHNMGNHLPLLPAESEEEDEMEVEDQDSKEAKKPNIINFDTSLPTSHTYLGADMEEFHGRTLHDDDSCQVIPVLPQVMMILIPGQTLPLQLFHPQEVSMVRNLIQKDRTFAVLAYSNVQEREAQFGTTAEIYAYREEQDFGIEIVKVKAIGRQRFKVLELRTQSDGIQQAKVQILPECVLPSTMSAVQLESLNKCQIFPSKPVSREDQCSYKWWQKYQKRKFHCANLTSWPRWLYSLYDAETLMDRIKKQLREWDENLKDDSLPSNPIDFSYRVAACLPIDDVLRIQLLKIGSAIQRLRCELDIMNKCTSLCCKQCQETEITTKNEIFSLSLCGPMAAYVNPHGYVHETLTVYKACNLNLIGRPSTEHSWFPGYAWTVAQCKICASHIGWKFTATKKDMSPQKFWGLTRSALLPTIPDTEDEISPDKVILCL
T1 sequence (Q16531 whole entry partner): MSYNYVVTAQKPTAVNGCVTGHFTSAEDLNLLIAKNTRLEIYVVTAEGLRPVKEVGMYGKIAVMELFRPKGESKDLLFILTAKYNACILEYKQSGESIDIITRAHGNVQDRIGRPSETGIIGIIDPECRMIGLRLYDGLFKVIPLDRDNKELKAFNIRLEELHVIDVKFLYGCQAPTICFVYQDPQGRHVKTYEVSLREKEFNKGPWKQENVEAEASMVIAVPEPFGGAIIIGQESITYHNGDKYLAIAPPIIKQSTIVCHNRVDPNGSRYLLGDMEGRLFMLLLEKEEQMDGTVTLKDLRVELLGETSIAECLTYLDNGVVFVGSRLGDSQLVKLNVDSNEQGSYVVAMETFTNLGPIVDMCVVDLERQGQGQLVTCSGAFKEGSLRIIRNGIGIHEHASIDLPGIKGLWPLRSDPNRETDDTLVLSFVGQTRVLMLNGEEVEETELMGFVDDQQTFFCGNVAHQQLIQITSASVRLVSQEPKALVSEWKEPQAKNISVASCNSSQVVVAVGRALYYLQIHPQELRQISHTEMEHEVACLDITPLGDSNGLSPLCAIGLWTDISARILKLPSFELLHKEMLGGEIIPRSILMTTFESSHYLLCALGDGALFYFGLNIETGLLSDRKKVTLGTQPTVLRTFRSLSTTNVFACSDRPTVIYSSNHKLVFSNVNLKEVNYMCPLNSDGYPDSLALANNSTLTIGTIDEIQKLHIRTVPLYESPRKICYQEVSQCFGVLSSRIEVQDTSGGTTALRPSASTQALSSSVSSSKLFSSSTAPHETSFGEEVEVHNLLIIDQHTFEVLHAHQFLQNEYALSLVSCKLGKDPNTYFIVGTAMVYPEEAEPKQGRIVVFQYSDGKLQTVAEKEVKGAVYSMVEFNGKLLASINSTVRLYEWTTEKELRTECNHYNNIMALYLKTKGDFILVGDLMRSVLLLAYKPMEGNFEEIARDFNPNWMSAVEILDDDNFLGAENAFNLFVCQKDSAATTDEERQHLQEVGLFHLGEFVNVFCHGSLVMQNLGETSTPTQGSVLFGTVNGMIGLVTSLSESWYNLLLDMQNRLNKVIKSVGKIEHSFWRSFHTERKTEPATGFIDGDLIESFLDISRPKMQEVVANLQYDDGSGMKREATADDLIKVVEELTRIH
T3 sequence (Q13422 whole entry): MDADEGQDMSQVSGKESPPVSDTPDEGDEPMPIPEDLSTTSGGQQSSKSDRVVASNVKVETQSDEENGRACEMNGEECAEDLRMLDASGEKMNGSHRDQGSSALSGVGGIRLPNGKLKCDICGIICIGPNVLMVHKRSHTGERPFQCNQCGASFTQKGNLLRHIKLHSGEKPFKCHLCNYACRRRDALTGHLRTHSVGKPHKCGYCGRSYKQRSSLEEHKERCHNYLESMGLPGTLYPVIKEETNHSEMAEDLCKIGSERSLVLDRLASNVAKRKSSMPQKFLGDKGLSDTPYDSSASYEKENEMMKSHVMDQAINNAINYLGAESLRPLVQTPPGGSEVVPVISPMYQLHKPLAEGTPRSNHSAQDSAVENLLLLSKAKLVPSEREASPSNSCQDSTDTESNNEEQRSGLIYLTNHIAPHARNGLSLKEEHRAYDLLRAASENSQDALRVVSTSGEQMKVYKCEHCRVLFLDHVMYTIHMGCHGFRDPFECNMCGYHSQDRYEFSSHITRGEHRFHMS
T3 sequence (Q96SW2 whole entry): as the sequence (Q96SW2 whole entry) above
T3 sequence (Q16531 whole entry partner): as the sequence (Q16531 whole entry partner) above
T2 sequence (Q06187 whole entry, species assumed): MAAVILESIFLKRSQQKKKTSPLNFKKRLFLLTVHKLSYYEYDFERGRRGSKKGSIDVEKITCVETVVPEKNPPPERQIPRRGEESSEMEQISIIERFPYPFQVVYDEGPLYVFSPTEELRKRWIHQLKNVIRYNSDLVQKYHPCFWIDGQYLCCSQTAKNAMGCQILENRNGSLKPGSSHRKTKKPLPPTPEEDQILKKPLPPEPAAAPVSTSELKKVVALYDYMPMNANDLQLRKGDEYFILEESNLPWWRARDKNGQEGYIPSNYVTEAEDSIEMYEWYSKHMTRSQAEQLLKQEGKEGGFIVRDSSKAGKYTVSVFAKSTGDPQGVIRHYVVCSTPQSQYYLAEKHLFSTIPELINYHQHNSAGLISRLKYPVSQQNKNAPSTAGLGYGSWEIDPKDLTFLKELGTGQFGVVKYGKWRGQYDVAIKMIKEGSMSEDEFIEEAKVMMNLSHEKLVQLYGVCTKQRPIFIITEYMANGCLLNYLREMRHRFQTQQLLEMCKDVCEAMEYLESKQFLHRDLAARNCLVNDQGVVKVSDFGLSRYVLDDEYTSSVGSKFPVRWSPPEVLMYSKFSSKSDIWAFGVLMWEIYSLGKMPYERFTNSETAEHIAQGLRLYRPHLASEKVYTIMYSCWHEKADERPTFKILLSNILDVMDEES

For the compound `NC(=O)c1ncc(N2CCCCC2)nc1Nc1ccc2c(c1)CCN(C1CN(c3ccc4c(c3)C(=O)N(C3CCC(=O)NC3=O)C4=O)C1)C2` (racemic) [Compound 2, rac-3-{[2-(1-{2-[(3R)-2,6-dioxopiperidin-3-yl]-1,3-dioxoisoindol-5-yl}azetidin-3-yl)-3,4-dihydro-1H-isoquinolin-6-yl]amino}-5-(piperidin-1-yl)pyrazine-2-carboxamide], at Aiolos, it took 5.2 nM to reach half-maximal degradation (DC50) and the Dmax was determined as 94.7%.
The corresponding values for `NC(=O)c1ncc(N2CCCCC2)nc1Nc1ccc2c(c1)CCN(C[C@H]1CCN(c3ccc4c(c3)C(=O)N(C3CCC(=O)NC3=O)C4=O)C1)C2` (stereo partly drawn) [Compound 1] are 27 nM and 77.4%.
On the same counts, the results for `CN1CCN([C@@H]2CCCN(c3cnc(C(N)=O)c(Nc4ccc(C5CCN(C[C@H]6CC[C@H](Nc7cccc8c7C(=O)N(C7CCC(=O)NC7=O)C8=O)CC6)CC5)cc4)n3)C2)C1=O` (stereo partly drawn) [Compound 3] are 93 nM and 84.9%.
On the same counts, the results for `CN1CCN([C@@H]2CCCN(c3cnc(C(N)=O)c(Nc4ccc(C5CCN(CCCNc6cccc7c6C(=O)N(C6CCC(=O)NC6=O)C7=O)CC5)cc4)n3)C2)C1=O` (stereo partly drawn) [Compound 4] are 8 nM and 87%.
On Aiolos, `NC(=O)c1ncc(N2CCCCC2)nc1Nc1ccc(C2CCN(C[C@@H]3CCN(c4ccc5c(c4)C(=O)N(C4CCC(=O)NC4=O)C5=O)C3)CC2)cc1` (stereo partly drawn) [Compound 5] displayed a 50% degradation concentration (DC50) of 22 nM. Further, the Dmax at Aiolos was found to be 89.1%. Besides, in the data set with arthritis, the body weight loss result was “minimal body weight loss”. This compound displayed a BTK degradation on BTK of at least 80%. For the same compound, the Ikaros degradation is 75.2-95.7% on Ikaros (patients receiving 300 mg) and 26.1-60.5% at Ikaros (patients receiving either 100 or 200 mg).
Turning to `CN1CCN([C@H]2CCCN(c3cnc(C(N)=O)c(Nc4cnn(C5CCN(CC6CN(c7ccc8c(c7)C(=O)N(C7CCC(=O)NC7=O)C8=O)C6)CC5)c4)n3)C2)C1=O` (stereo partly drawn) [Compound 6], at Aiolos, the 50% degradation concentration (DC50) was found to be 23 nM and the Dmax turned out to be 70.8%.
On the same counts, the results for `CN1CCN([C@H]2CCCN(c3cnc(C(N)=O)c(Nc4ccc5c(c4)CCN(CC4CN(c6ccc7c(c6)C(=O)N(C6CCC(=O)NC6=O)C7=O)C4)C5)n3)C2)C1=O` (stereo partly drawn) [Compound 7] are 4 nM and 98.2%.
On the same counts, the results for `CN1CCN([C@@H]2CCCN(c3cnc(C(N)=O)c(Nc4ccc5c(c4)CCN(C4CN(c6ccc7c(c6)C(=O)N(C6CCC(=O)NC6=O)C7=O)C4)C5)n3)C2)C1=O` (stereo partly drawn) [Compound 8] are 1 nM and 98.4%.
The corresponding values for `CN1CCN([C@@H]2CCCN(c3cnc(C(N)=O)c(Nc4ccc5c(c4)CCN(CC4CCN(c6ccc7c(c6)C(=O)N(C6CCC(=O)NC6=O)C7=O)CC4)C5)n3)C2)C1=O` (stereo partly drawn) [Compound 9] are 12 nM and 86.5%.
For the compound `CN1CCN([C@@H]2CCCN(c3cnc(C(N)=O)c(Nc4ccc(N5CC6(C5)CN(c5ccc7c(c5)C(=O)N(C5CCC(=O)NC5=O)C7=O)C6)cc4)n3)C2)C1=O` (stereo partly drawn) [Compound 10], on Aiolos, it took 9 nM to reach half-maximal degradation (DC50) and the Dmax amounted to 83.1%.
The corresponding values for `CN1CCN([C@@H]2CCCN(c3cnc(C(N)=O)c(Nc4ccc(C5CN(C6CCN(c7ccc8c(c7)C(=O)N(C7CCC(=O)NC7=O)C8=O)CC6)C5)cc4)n3)C2)C1=O` (stereo partly drawn) [Compound 11] are 20 nM and 78.7%.
The corresponding values for `CN1CCN([C@@H]2CCCN(c3cnc(C(N)=O)c(Nc4ccc(N5CCN(C[C@@H]6[C@H]7CN(c8ccc9c(c8)C(=O)N(C8CCC(=O)NC8=O)C9=O)C[C@@H]67)CC5)cc4)n3)C2)C1=O` (stereo partly drawn) [Compound 12] are 7 nM and 65.1%.
The corresponding values for `CN1CCN([C@@H]2CCCN(c3cnc(C(N)=O)c(Nc4ccc(C5CCN(C[C@H]6CCN(c7ccc8c(c7)C(=O)N(C7CCC(=O)NC7=O)C8=O)C6)CC5)cc4)n3)C2)C1=O` (stereo partly drawn) [Compound 13] are 33 nM and 73.9%.
Regarding `CN1CCN([C@@H]2CCCN(c3cnc(C(N)=O)c(Nc4ccc(C5CCN(CC6CCN(c7ccc8c(c7)C(=O)N(C7CCC(=O)NC7=O)C8=O)CC6)CC5)cc4)n3)C2)C1=O` (stereo partly drawn) [Compound 14], at Aiolos, half-maximal degradation (DC50) was put at 11 nM and the Dmax turned out to be 74%.
The corresponding values for `CN1CCN([C@@H]2CCCN(c3cnc(C(N)=O)c(Nc4ccc(C5CCN(C6CN(c7ccc8c(c7)C(=O)N(C7CCC(=O)NC7=O)C8=O)C6)CC5)cc4)n3)C2)C1=O` (stereo partly drawn) [Compound 15] are 17 nM and 74.7%.
On the same counts, the results for `CN1CCN([C@@H]2CCCN(c3cnc(C(N)=O)c(Nc4ccc(OCCCNc5ccc6c(c5)C(=O)N(C5CCC(=O)NC5=O)C6=O)cc4)n3)C2)C1=O` (stereo partly drawn) [Compound 16] are 24 nM and 95.7%.
On the same counts, the results for `CN1CCN([C@@H]2CCCN(c3cnc(C(N)=O)c(Nc4ccc(C5(C)CCN(C(=O)CCOCCC(=O)Nc6cccc7c6CN(C6CCC(=O)NC6=O)C7=O)CC5)cc4)n3)C2)C1=O` (stereo partly drawn) [Compound 17] are 560 nM and 51.9%.
In the case of `CN1CCN([C@@H]2CCCN(c3cnc(C(N)=O)c(Nc4ccc(N5CCN(CCCCc6cccc7c6CN(C6CCC(=O)NC6=O)C7=O)CC5)cc4)n3)C2)C1=O` (stereo partly drawn) [Compound 18], at Aiolos, it took 9 nM to reach half-maximal degradation (DC50) and the Dmax stood at 81.6%.
On the same counts, the results for `CN1CCN([C@@H]2CCCN(c3cnc(C(N)=O)c(Nc4ccc(C5CCN(C(=O)CCOCCNc6cccc7c6C(=O)N(C6CCC(=O)NC6=O)C7=O)CC5)cc4)n3)C2)C1=O` (stereo partly drawn) [Compound 19] are 1 nM and 98.6%.
